Data set [1] in a line: in vitro. The settings on record: human, HeLa cells.
Description: Cytotoxicity against human HeLa cells assessed as inhibition of cell proliferation incubated for 72 hrs by celltiter-glo assay
Data set [2] can be described thus: in vitro. Conditions: human, RPE-1 cells (TERT-RPE1).
Description: Cytotoxicity against human RPE-1 cells assessed as inhibition of cell proliferation incubated for 72 hrs by celltiter-glo assay
The subject of the next data set is PC-3. Briefly: cells. The settings on record: Homo sapiens, PC-3, 72 h.
Data set [3] has as its target T1, Oxysterol-binding protein 1 (Homo sapiens, UniProt P22059).
T1 sequence (P22059 whole entry): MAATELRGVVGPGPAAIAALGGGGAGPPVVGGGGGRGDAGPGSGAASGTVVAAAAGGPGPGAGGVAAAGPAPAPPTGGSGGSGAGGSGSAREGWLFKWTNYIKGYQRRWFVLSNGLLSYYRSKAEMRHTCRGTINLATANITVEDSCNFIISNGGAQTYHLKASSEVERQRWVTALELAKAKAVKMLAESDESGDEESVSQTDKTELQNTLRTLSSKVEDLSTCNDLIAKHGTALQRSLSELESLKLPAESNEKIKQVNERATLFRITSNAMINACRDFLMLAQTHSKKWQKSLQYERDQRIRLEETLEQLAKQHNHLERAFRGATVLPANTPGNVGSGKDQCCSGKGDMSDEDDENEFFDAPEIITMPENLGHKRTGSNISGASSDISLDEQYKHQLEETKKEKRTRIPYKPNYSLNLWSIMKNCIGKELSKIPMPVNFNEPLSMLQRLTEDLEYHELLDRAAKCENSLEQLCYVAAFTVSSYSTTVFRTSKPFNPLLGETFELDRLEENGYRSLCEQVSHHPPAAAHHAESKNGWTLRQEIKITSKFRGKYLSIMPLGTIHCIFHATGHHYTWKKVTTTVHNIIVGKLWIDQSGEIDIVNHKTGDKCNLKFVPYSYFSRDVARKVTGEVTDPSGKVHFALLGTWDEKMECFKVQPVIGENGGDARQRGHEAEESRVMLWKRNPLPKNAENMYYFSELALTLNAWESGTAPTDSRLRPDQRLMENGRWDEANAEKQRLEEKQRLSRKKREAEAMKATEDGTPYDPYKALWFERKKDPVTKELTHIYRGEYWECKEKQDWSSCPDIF
Briefly: Binding affinity to OSBP (unknown origin) ORD domain assessed as dissociation constant by FRET assay.

A further data set relates to MDA-MB-231. The data set is described as follows: cells. The settings on record: Homo sapiens, MDA-MB-231, 72 h.
The next data set concerns MCF7. The data set is described as follows: cells. Conditions: Homo sapiens, MCF7, 72 h.
The subject of another data set is A549. Briefly: cells. The settings on record: Homo sapiens, A549, 72 h.
Data set [4] in a line: in vitro. Conditions: human, MRC5 cells.
Description: Cytotoxicity against human MRC5 cells assessed as inhibition of cell proliferation incubated for 72 hrs by celltiter-glo assay

Among the data in ChEMBL document CHEMBL6087453, “Minimalist Natural ORPphilin Macarangin B Delineates OSBP Biological Function” (J Med Chem, 2025) are IC50 and Kd values, retold here.

Description for A549: Cytotoxicity against human A549 cells assessed as inhibition of cell proliferation incubated for 72 hrs by celltiter-glo assay
Description for MCF7: Cytotoxicity against human MCF7 cells assessed as inhibition of cell proliferation incubated for 72 hrs by celltiter-glo assay
Description for MDA-MB-231: Cytotoxicity against human MDA-MB-231 cells assessed as inhibition of cell proliferation incubated for 72 hrs by celltiter-glo assay
Description for PC-3: Cytotoxicity against human PC-3 cells assessed as inhibition of cell proliferation incubated for 72 hrs by celltiter-glo assay

As for `CC(C)=CCc1c(O)cc(/C=C/c2cc(O)c3c(c2)C[C@@H]2C(C)(C)[C@H](O)CC[C@@]2(C)O3)cc1O` [SCHWEINFURTHIN G], the IC50 at 72 h worked out at 100 nM in the data set “in vitro [1]”, 400 nM in “in vitro [2]” and 300 nM in “in vitro [4]”. Also, the half-inhibitory concentration (IC50) with PC-3 came to 300 nM; in the data set on MDA-MB-231, 300 nM; with MCF7, 1000 nM; in the data set with A549, 500 nM. In addition, the dissociation constant (Kd) in data set [3] was 22 nM.
